Source: US8921555B2, “Substituted-1,3,8-triazaspiro[4.5]decane-2,4-diones” (Merck Sharp & Dohme Corp., priority 2009, dated 2014)
Read-outs that look alike come from different tables or passages of the source.

Biological target: T1, HIF-PHD2 (Homo sapiens, UniProt Q9GZT9)
T1 construct: FLAG-tagged full length PHD2 expressed in and purified from baculovirus-infected Sf9 cells; FLAG; made in house; host or cells: baculovirus-infected Sf9 cells
Assay: Assay for HIF-PHD2 Catalytic Activity (PHD2 Binding Activity)
Format: biochemical

[1] = read-out: PHD2 Binding Activity IC50

T1 sequence (Q9GZT9 whole entry): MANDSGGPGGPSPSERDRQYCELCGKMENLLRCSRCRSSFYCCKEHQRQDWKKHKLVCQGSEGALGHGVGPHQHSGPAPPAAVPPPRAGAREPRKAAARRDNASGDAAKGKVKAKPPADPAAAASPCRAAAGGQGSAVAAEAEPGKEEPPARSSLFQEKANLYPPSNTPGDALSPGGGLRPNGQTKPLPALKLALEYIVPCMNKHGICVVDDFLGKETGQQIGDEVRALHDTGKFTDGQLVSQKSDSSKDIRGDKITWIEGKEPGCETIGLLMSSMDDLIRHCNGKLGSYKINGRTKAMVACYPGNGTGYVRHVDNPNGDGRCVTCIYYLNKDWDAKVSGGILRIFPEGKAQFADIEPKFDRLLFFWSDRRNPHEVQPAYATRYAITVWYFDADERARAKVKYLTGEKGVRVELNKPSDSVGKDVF

Compound | IC50 [nM] | IC50 [1] [nM]
COc1ccnc(N2C(=O)N(c3ccc(-c4ccccc4)cc3)C(=O)C23CCN(Cc2ncccc2Br)CC3)n1 [Compound 1-28, 3-biphenyl-4-yl-8-[(3-bromopyridin-2-yl)methyl]-1-(4-methoxypyrimidin-2-yl)-1,3,8-triazaspiro[4.5]decane-2,4-dione] | 20 to 50 | –
COc1cc(N2C(=O)N(c3ccc(-c4ccc(C5CC(=O)NN5)cc4)cc3)C(=O)C23CCN(Cc2ncccc2C)CC3)ncn1 (stereo not shown) [Compound 7-13, 1-(6-methoxypyrimidin-4-yl)-8-[(3-methylpyridin-2-yl)methyl]-3-[4′-(5-oxopyrazolidin-3-yl)biphenyl-4-yl]-1,3,8-triazaspiro[4.5] decane-2,4-dione] | 0.5 to 20 | –
Cc1cccnc1CN1CCC2(CC1)C(=O)N(c1ccc(-c3ccccc3)cc1)C(=O)N2c1nccc(C(=O)O)n1 [Compound 1-59, 2-{3-biphenyl-4-yl-8-[(3-methylpyridin-2-yl)methyl]-2,4-dioxo-1,3,8-triazaspiro[4.5]dec-1-yl}pyrimidine-4-carboxylic acid] | 0.5 to 20 | –
O=C(O)CN1CCC2(CC1)C(=O)N(c1ccc(-c3ccccc3)cc1)C(=O)N2c1cncnc1 [Compound 2-4, (3-biphenyl-4-yl-2,4-dioxo-1-pyrimidin-5-yl-1,3,8-triazaspiro[4.5]dec-8-yl)acetic acid] | 20 to 50 | –
Cc1cccnc1CN1CCC2(CC1)C(=O)N(c1ccc(C(=O)O)cc1)C(=O)N2c1nccc(O)n1 [Compound 1-17, 4-{1-(4-hydroxypyrimidin-2-yl)-8-[(3-methylpyridin-2-yl)methyl]-2,4-dioxo-1,3,8-triazaspiro[4.5]dec-3-yl}benzoic acid] | > 50 | –
Cc1cccnc1CN1CCC2(CC1)C(=O)N(c1ccc(-c3ccccc3)cc1)C(=O)N2c1nc(O)cc(O)n1 [Compound 1-55, 3-biphenyl-4-yl-1-(4,6-dihydroxypyrimidin-2-yl)-8-[(3-methylpyridin-2-yl)methyl]-1,3,8-triazaspiro[4.5]decane-2,4-dione] | 0.5 to 20 | –
Cc1cccnc1CN1CCC2(CC1)C(=O)N(c1ccccc1)C(=O)N2c1nccc(O)n1 [Compound 1-3, 1-(4-hydroxypyrimidin-2-yl)-8-[(3-methylpyridin-2-yl)methyl]-3-phenyl-1,3,8-triazaspiro[4.5]decane-2,4-dione] | > 50 | –
CCOC(=O)C1CN(Cc2ncccc2C)CCC12C(=O)N(c1ccc(-c3ccccc3)cc1)C(=O)N2c1nccc(O)n1 (stereo not shown) [Compound 3-3, ethyl 3-biphenyl-4-yl-1-(4-hydroxypyrimidin-2-yl)-8-[(3-methylpyridin-2-yl)methyl]-2,4-dioxo-1,3,8-triazaspiro[4.5]decane-6-carboxylate] | 0.5 to 20 | –
Cc1cc(C(=O)O)ccc1-c1ccc(N2C(=O)N(c3cccnn3)C3(CCN(Cc4ncccc4C)CC3)C2=O)cc1 [Compound 9-2, 2-methyl-4′-{8-[(3-methylpyridin-2-yl)methyl]-2,4-dioxo-1-pyridazin-3-yl-1,3,8-triazaspiro[4.5]dec-3-yl}biphenyl-4-carboxylic acid] | 0.5 to 20 | –
Cc1cc(C(=O)O)ccc1-c1ccc(N2C(=O)N(CC(F)(F)F)C3(CCN(Cc4ncccc4C)CC3)C2=O)cn1 [Compound 11-3, 3-methyl-4-(5-{8-[(3-methylpyridin-2-yl)methyl]-2,4-dioxo-1-(2,2,2-trifluoroethyl)-1,3,8-triazaspiro[4.5]dec-3-yl}-pyridin-2-yl) benzoic acid] | – | 0.5 to 20
Cc1cccnc1CN1CCC2(C(=O)N(c3ccc(-c4ccccc4)cc3)C(=O)N2c2ncccn2)C(C(=O)O)C1 (stereo not shown) [Compound 3-8, 3-biphenyl-4-yl-8-[(3-methylpyridin-2-yl)methyl]-2,4-dioxo-1-pyrimidin-2-yl-1,3,8-triazaspiro[4.5]decane-6-carboxylic acid] | 0.5 to 20 | –
Cc1cccnc1CN1CCC2(CC1)C(=O)N(c1ccc(-c3ccccc3)cc1)C(=O)N2C(=O)N[C@H](C)C(=O)O [Compound 5-4, (2R)-2-[({3-biphenyl-4-yl-8-[(3-methylpyridin-2-yl)methyl]-2,4-dioxo-1,3,8-triazaspiro[4.5]dec-1-yl}carbonyl)amino]propanoic acid] | – | 0.5 to 20
Cc1cccnc1CN1CCC2(CC1)C(=O)N(c1ccc(C3CC3C(=O)O)cc1)C(=O)N2c1ncccn1 (stereo not shown) [Compound 1-69, 2-(4-{8-[(3-methylpyridin-2-yl)methyl]-2,4-dioxo-1-pyrimidin-2-yl-1,3,8-triazaspiro[4.5]dec-3-yl}phenyl)cyclopropanecarboxylic acid] | 0.5 to 20 | –
O=C(O)c1[nH]cnc1CN1CCC2(CC1)C(=O)N(c1ccc(-c3ccccc3)cc1)C(=O)N2c1nccc(O)n1 [Compound 1-50] | 20 to 50 | –
COc1ccnc(N2C(=O)N(c3ccc(C#N)cc3)C(=O)C23CCN(Cc2ncccc2C)CC3)n1 [Compound 1-25, 4-{1-(4-methoxypyrimidin-2-yl)-8-[(3-methylpyridin-2-yl)methyl]-2,4-dioxo-1,3,8-triazaspiro[4.5]dec-3-yl}benzonitrile] | > 50 | –
O=C(O)Cn1ccnc1CN1CCC2(CC1)C(=O)N(c1ccc(-c3ccccc3)cc1)C(=O)N2c1nccc(O)n1 [Compound 1-23, (2-{[3-biphenyl-4-yl-1-(4-hydroxypyrimidin-2-yl)-2,4-dioxo-1,3,8-triazaspiro[4.5]dec-8-yl]methyl}-1H-imidazol-1-yl)acetic acid] | 0.5 to 20 | –

Compound | IC50 [nM] | IC50 [1] [nM]
Cc1cncc(N2C(=O)N(c3ccc(-c4ccc(C(=O)O)cc4C)cc3)C(=O)C23CCN(Cc2ncccc2C)CC3)n1 [Compound 7-6, 2-methyl-4′-{1-(6-methylpyrazin-2-yl)-8-[(3-methylpyridin-2-yl)methyl]-2,4-dioxo-1,3,8-triazaspiro[4.5]dec-3-yl}biphenyl-4-carboxylic acid] | 0.5 to 20 | –
COc1cc(O)nc(N2C(=O)N(c3ccc(-c4ccccc4)cc3)C(=O)C23CCN(Cc2ncccc2C)CC3)n1 [Compound 1-56, 3-biphenyl-4-yl-1-(4-hydroxy-6-methoxypyrimidin-2-yl)-8-[(3-methylpyridin-2-yl)methyl]-1,3,8-triazaspiro[4.5]decane-2,4-dione] | 0.5 to 20 | –
Cc1cccnc1CN1CCC2(CC1)C(=O)N(c1ccc(-c3ccccc3)cc1)C(=O)N2c1cccnc1 [Compound 1-18, 3-biphenyl-4-yl-8-[(3-methylpyridin-2-yl)methyl]-1-pyridin-3-yl-1,3,8-triazaspiro[4.5]decane-2,4-dione] | 0.5 to 20 | –
O=C(O)c1[nH]cnc1CN1CCC2(CC1)NC(=O)N(c1ccc(-c3ccccc3)cc1)C2=O [Compound 1-51, 4-[(3-biphenyl-4-yl-2,4-dioxo-1,3,8-triazaspiro[4.5]dec-8-yl)methyl]-1-H-imidazole-5-carboxylic acid] | – | 0.5 to 20
COc1cc(N2C(=O)N(c3ccc(-c4ccc(C(=O)O)cc4)nc3)C(=O)C23CCN(Cc2cc(O)ccn2)CC3)ncn1 [Compound 10-4, 4-(5-{8-[(4-hydroxypyridin-2-yl)methyl]-1-(6-methoxypyrimidin-4-yl)-2,4-dioxo-1,3,8-triazaspiro[4.5]dec-3-yl}-pyridin-2-yl) benzoic acid] | 0.5 to 20 | –
COc1ccnc(N2C(=O)N(c3ccc(-c4ccccc4)cc3)C(=O)C23CCN(CC(=O)O)CC3)n1 [Compound 2-6, [3-biphenyl-4-yl-1-(4-methoxypyrimidin-2-yl)-2,4-dioxo-1,3,8-triazaspiro[4.5]dec-8-yl]acetic acid] | 0.5 to 20 | –
Cc1cccnc1CN1CCC2(CC1)C(=O)N(c1ccc(-c3ccccc3)cc1)C(=O)N2c1cccs1 [Compound 1-27, 3-biphenyl-4-yl-8-[(3-methylpyridin-2-yl)methyl]-1-(2-thienyl)-1,3,8-triazaspiro[4.5]decane-2,4-dione] | – | 0.5 to 20
O=C(O)CN1CCC2(CC1)C(=O)N(c1ccc(-c3ccccc3)cc1)C(=O)N2c1cnccn1 [Compound 2-3, (3-biphenyl-4-yl-2,4-dioxo-1-pyrazin-2-yl-1,3,8-triazaspiro[4.5]dec-8-yl)acetic acid] | 0.5 to 20 | –
COC(=O)c1cccc(N2C(=O)N(c3ccc(-c4ccccc4)cc3)C(=O)C23CCN(Cc2ncccc2C)CC3)n1 [Compound 1-13, methyl 6-{3-biphenyl-4-yl-8-[(3-methylpyridin-2-yl)methyl]-2,4-dioxo-1,3,8-triazaspiro[4.5]dec-1-yl}pyridine-2-carboxylate] | 0.5 to 20 | –
Cc1cc(N2C(=O)N(c3ccc(-c4ccc(C(=O)O)cc4)cc3)C(=O)C23CCN(Cc2ncccc2C)CC3)ncn1 [Compound 7-9, 4′-[8-[(3-methylpyridin-2-yl)methyl]-1-(6-methylpyrimidin-4-yl)-2,4-dioxo-1,3,8-triazaspiro[4.5]dec-3-yl]biphenyl-4-carboxylic acid] | 0.5 to 20 | –
Cc1cccnc1CN1CCC2(CC1)C(=O)N(c1ccc(-c3ccccc3)cc1)C(=O)N2c1ncccc1O [Compound 1-43, 3-biphenyl-4-yl-1-(3-hydroxypyridin-2-yl)-8-[(3-methylpyridin-2-yl)methyl]-1,3,8-triazaspiro[4.5]decane-2,4-dione] | 20 to 50 | –
COc1ccnc(N2C(=O)N(c3ccc(-c4ccccc4)cc3)C(=O)C23CCN(Cc2ncccc2C)CC3)n1 [Compound 1-29, 3-biphenyl-4-yl-1-(4-methoxypyrimidin-2-yl)-8-[(3-methylpyridin-2-yl)methyl]-1,3,8-triazaspiro[4.5]decane-2,4-dione] | 0.5 to 20 | –
COc1ccnc(N2C(=O)N(c3ccccc3)C(=O)C23CCN(Cc2ncccc2C)CC3)n1 [Compound 1-30, 1-(4-methoxypyrimidin-2-yl)-8-[(3-methylpyridin-2-yl)methyl]-3-phenyl-1,3,8-triazaspiro[4.5]decane-2,4-dione] | > 50 | –
COc1ccnc(N2C(=O)N(c3ccc(-c4ccccc4)cc3)C(=O)C23CCN(Cc2nnn[nH]2)CC3)n1 [Compound 1.39, 3-biphenyl-4-yl-1-(4-methoxypyrimidin-2-yl)-8-(1H-tetrazol-5-ylmethyl)-1,3,8-triazaspiro[4.5]decane-2,4-dione] | > 50 | –
Cc1cccnc1CN1CCC2(CC1)C(=O)N(c1ccc(-c3ccccc3)cc1)C(=O)N2c1cnc(O)cn1 [Compound 1-45, 3-biphenyl-4-yl-1-(5-hydroxypyrazin-2-yl)-8-[(3-methylpyridin-2-yl)methyl]-1,3,8-triazaspiro[4.5]decane-2,4-dione] | 20 to 50 | –
